# Assays:
# Format in all cases: in vivo
# [1] = system: Codling Moth larvae; assay: Repellency as feeding deterrence and mortality in Codling Moth larvae on treated media; settings: for Repellency at 24 hours: first instar larva, control 8%
# Experimental: Another test was designed to measure the repellency as feeding deterrence in Codling Moth larvae. The treatment was applied to the surface of a proprietary laboratory media in a tray with wells for each compound. The media was allowed to dry for 30-60 minutes so that larvae were not exposed to it as a liquid. One first instar codling moth larva was then placed on the treated media. The cover film was placed on the tray to prevent escapes. Ten additional replicates treated with a 57% ethanol solution were prepared to serve as controls. […] After the 24 hour reading, the larvae were extracted from the media to record any mortality.
# Mortality observations were also made for the above protocol. The control was the 57% ethanol:43% water solution.
# [2] = system: Aphis gossypii; assay: Melon aphid repellency on leaf choice assays; settings: 3% compound in a Triton X:Water solution; n=100; control 50/50
# Source text: Melon Aphid Repellency on Leaf Choice Assays Aphis gossypii are maintained on squash plants. Individual aphids (n=100) are given the choice between leaves with and without repellent treatments. A separate group of aphids are given a choice between untreated vs. untreated leaves as a control. The number of aphids choosing each leaf is counted both choice tests. The number of aphids choosing each treatment is compared to the control to determine the repellent effect.
# [3] = system: psyllids; assay: Psyllid repellency on potato choice assays; settings: 3% compound; potato plants; 100 psyllids per cage; control 50/50
# Source text: Psyllid Repellency on Potato Choice Assays
# Potato plants are sprayed with either a 3% solution of repellent chemical in a 5%:95% ETOH:Water or only 5%:95% ETOH:Water as a control. Two plants are placed in a screen cage, either a treatment vs control tree or a control vs control tree, 100 psyllids are released into each cage. The number of psyllids choosing each leaf is counted for both choice tests. The number of psyllids choosing each treatment is compared to the control to determine if there is a repellent effect.
# [4] = system: sharpshooters; assay: Leafhopper repellency on citrus choice assays; settings: 3% compound; citrus seedlings; 100 sharpshooters per cage; control 50/50
# Source text: Leafhopper Repellency on Citrus Choice Assays Citrus seedlings are sprayed with either a 3% solution of repellent chemical in a 5%:95% ETOH:Water or only 5%:95% ETOH:Water as a control. Two seedlings are placed in a screen cage, either a treatment vs control tree or a control vs control tree. 100 sharpshooters are released into each cage. The number of sharpshooters choosing each leaf is counted for both choice tests. The number of sharpshooters choosing each treatment is compared to the control to determine if there is a repellent effect.
# [5] = system: Euschistus heros-Neotropical Brown Stink Bugs; assay: Stink bug feeding damage on soybean pods; settings: 3% compound, soybean plants at R6 stage, 48 hours
# Experimental: To compare the feeding/resting preference of stink bug adults for different plant parts, 10 pots with soybean plants at the R6 (pod-filling) stage of development are used. 5 pots of soybeans are sprayed with 3% of treatment in a 2% Triton X:water solution and 5 pots of soybean are treated with 2% Triton X:water solution as controls. Thirty stink bugs are placed individually in each cage and allowed to feed for 48 hours. Insects are removed and plant parts are collected for visual analysis of damage. Feeding damage on the pods is counted for both treatments. The selective antifeeding rate (%) formula is [(C−T)/(C+T)]×100, and the non-selective antifeeding rate (%) formula is [(C−T)/C)]×100, where C and T are the numbers of feeding damages on the control and treated plant pods, respectively.
# [6] = system: Leptinotarsa decemlineata-Colorado Potatoe Beetles; assay: Choice feeding assay on potato leaf disks; settings: 3% compound, larvae, 24 h
# Experimental: For choice feeding assays, 3% alcohol solutions of the tested compounds are prepared. Disks (4.0 cm in diameter) are cut from potato leaves and are dipped in the test solutions or alcohol alone as a control. After the complete evaporation of the solvent, the disks are offered to 10 larvae. Control and treated disks are placed at alternate corners in Petri dishes (150 by 20 mm) lined with moistened filter paper (choice test). All dishes are placed in an incubator. Four replicates and 40 larva are used for each chemical. In each replicate, the insects are allowed to feed ad libitum for 24 h at 24 C under a 16:8 (L:D) photoperiod. After 24 h, the remaining uneaten area of each potato leaf disk is measured using a scanner and software. The selective antifeeding rate (%) formula is [(C−T)/(C+T)]×100, and the non-selective antifeeding rate (%) formula is [(C−T)/C)]×100, where C and T are the areas consumed by the control and treated leaf disks, respectively.
# [7] = system: Popillia japonica; assay: Japanese beetle feeding damage on basil; settings: 3% compound; basil leaf disks; adult beetle; 24 h
# Experimental: Japanese Beetle Feeding Damage on Basil For choice feeding assays, 3% alcohol solutions of the tested compounds are prepared. Disks (4.0 cm in diameter) are cut from basil leaves and are dipped in the test solutions or alcohol alone as a control. After the complete evaporation of the solvent, the disks are offered to 1 adult beetle. All dishes are placed in an incubator. Four replicates are used for each chemical. After 24 h, the remaining uneaten area of each basil leaf disk is measured using a scanner and software. The selective antifeeding rate (%) formula is [(C−T)/(C+T)]×100, and the non-selective antifeeding rate (%) formula is [(C−T)/C)]×100, where C and T are the areas consumed by the control and treated leaf disks, respectively.
# [8] = system: Dermestid spp.; assay: Dermestid beetle feeding damage on silk fabric; settings: 3% compound; undyed silk disks; late instar larvae; 1 week
# Experimental: Dermestid Beetle Feeding Damage on Silk Fabric
# For feeding assays, 3% alcohol solutions of the tested compounds are prepared. Disks (4.0 cm in diameter) of undyed silk fabric are dipped in the test solutions or alcohol alone as a control. After the complete evaporation of the solvent, the disks are offered to 10 late instar larvae. All dishes are placed in an incubator. Four replicates are used for each chemical. After 1 week, the remaining uneaten area of each silk disk is measured using a scanner and software. The selective antifeeding rate (%) formula is [(C−T)/(C+T)]×100, and the non-selective antifeeding rate (%) formula is [(C−T)/C)]×100, where C and T are the areas consumed by the control and treated silk disks, respectively.
# [9] = system: Tineola spp.; assay: Clothes moth feeding damage on silk fabric, choice test; settings: 3% compound; silk disks; late instar larvae; 24 hours; control 50/50
# Experimental: For feeding assays, 3% alcohol solutions of the tested compounds are prepared. Disks (2.0 cm in diameter) of undyed silk fabric are dipped in the test solutions or alcohol alone as a control. After the complete evaporation of the solvent, the disks are presented in a choice test to 10 late instar Tineola spp. larvae. All dishes are placed in an incubator in the dark. Four replicates are used for each chemical. After 24 hours, the number of individuals choosing to feed on each disk are counted.
# [10] = system: Plodia interpunctella; assay: Feeding repellent assay for Indian meal moth larva on treated rice; settings: 10% compound in a 5% Ethanol:95% water solution, third instar larvae, 1 week
# Experimental: (§1) Feeding Repellent Assay for Indian Meal Moth Larva One gram of rice is weighed and treated with 2% by weight of each test chemical or ethanol as a control for each treatment and replicate. The grains are allowed to dry and then weighed again. Treated or control rice grains are placed in a petri dish. Third instar larvae are starved for 8 h and gently introduced into the center of each compartment. 20 larva are screened per treatment, and each experiment is repeated three times. The weight of rice grains is measured again after 1 week. The selective antifeeding rate (%) formula is [(C−T)/(C+T)]×100, and the non-selective antifeeding rate (%) formula is [(C−T)/C)]×100, where C and T are the areas consumed by the control and treated leaf disks, respectively.
# [11] = system: Sitostroga cerealella; assay: Feeding repellent assay for Angoumois larva on treated rice; settings: 10% compound in a 5% Ethanol:95% water solution, third instar larvae, 1 week
# Experimental: Feeding Repellent Assay for Angoumois Larva
# as §1, with “One” for “Feeding Repellent Assay for Indian Meal Moth Larva One”
# [12] = system: brown marmorated stink bugs (BMSB); assay: Repellency as feeding deterrence in brown marmorated stink bugs, treated filter paper with green bean; settings: control 38%
# Experimental: A test was designed to measure the repellency as feeding deterrence in brown marmorated stink bugs (BMSB). Five replicates of 5 BMSBs were introduced into test arenas, containing one 60 mm×15 mm Petri dish with treated filter papers in which a food source (green bean) was attached, at the start of the test. The small Petri dishes containing the treated filter paper and food source were covered with a fitted Petri dish lid in between observation times, and were removed 5 minutes before each observation time to prevent stink bugs from feeding until sated. The distribution of the BMSBs was observed and documented hourly for 5 hours.
# [13] = compound at 3.5% in a 57% Ethanol:43% water solution
# [14] = compound at 2.5% in a 57% Ethanol:43% water solution
smiles,measurement,setting,value
CCCCCCCC1CC(=O)C=C(C)C1 (stereo not drawn) [3-Methyl-5-Heptyl-2-Cyclohexenone],Increased Mortality over Control Mortality at 24 hours,[1]; [13],93%
same,Repellency at 24 hours,[1]; [13],95%
CCCC1CC(C)=CC(O)C1 (stereo not drawn) [3-Methyl-5-Propyl-2-Cyclohexenol],Increased Mortality over Control Mortality at 24 hours,[1]; [13],9%
same,Repellency at 24 hours,[1]; [13],30%
CC(C)=CCC/C(C)=C/CC1CCCC1O (stereo not drawn) [Apritol],Number of Aphids Choosing each Treatment: Treated,[2],30
same,Number of Aphids Choosing each Treatment: Untreated,[2],70
same,Number of Psyllids Choosing each Treatment: Treated,[3],30
same,Number of Psyllids Choosing each Treatment: Untreated,[3],70
same,Number of Psyllids Choosing each Treatment: Treated,[4],30
same,Number of Psyllids Choosing each Treatment: Untreated,[4],70
same,% Antifeedent Activity,[5],60%
same,% Repellency,[6],15%
same,% Repellency,[7],15%
same,% Repellency,[8],15%
same,Individuals choosing to feed on each disk: Treated,[9],20
same,Individuals choosing to feed on each disk: Untreated,[9],80
same,% Antifeedent Activity,[10],70%
same,% Antifeedent Activity,[11],70%
"CC(C)=CCC/C(C)=C/CC1CCCC1=O (stereo not drawn) [Apritone, apritone]",Number of Aphids Choosing each Treatment: Treated,[2],30
same,Number of Aphids Choosing each Treatment: Untreated,[2],70
same,Number of Psyllids Choosing each Treatment: Treated,[3],30
same,Number of Psyllids Choosing each Treatment: Untreated,[3],70
same,Number of Psyllids Choosing each Treatment: Treated,[4],30
same,Number of Psyllids Choosing each Treatment: Untreated,[4],70
same,% Antifeedent Activity,[5],60%
same,% Repellency,[6],15%
same,% Repellency,[7],15%
same,% Repellency,[8],15%
same,Individuals choosing to feed on each disk: Treated,[9],20
same,Individuals choosing to feed on each disk: Untreated,[9],80
same,% Antifeedent Activity,[10],70%
same,% Antifeedent Activity,[11],70%
CCCCCCCCC1CCC(=O)O1 (stereo not drawn) [Gamma-Dodecalactone],Repellency averaged over 5 hours,[12]; [13],82%
same,Repellency at 24 hours,[1]; [13],46%
same,Increased Mortality over Control Mortality at 24 hours,[1]; in vivo,37%
CCCCCCCCCC1(C)CCC(=O)O1 (stereo not drawn) [Gamma-Methyl Tridecalactone],Repellency averaged over 5 hours,[12]; [13],67%
"CCCCCC1C(=O)CCC1CC(=O)OC (stereo not drawn) [Methyl Dihydrojasmonate - High epi, Methyl Dihydrojasmonate]",Repellency averaged over 5 hours,[12]; [14],39%
"CCCCCC1C(=O)CCC1CC(=O)OC (stereo not drawn) [Methyl Dihydrojasmonate - Low epi, Methyl Dihydrojasmonate]",Repellency averaged over 5 hours,[12]; [14],58%
"CC1CCC(C(C)(C)O)C(O)C1 (stereo not drawn) [Para-Menthanediol, p-Menthane-3,8-diol, reference compound]",Repellency averaged over 5 hours,[12]; [13],91%
same,Increased Mortality over Control Mortality at 24 hours,[1]; [13],3%
same,Repellency at 24 hours,[1]; [13],10%
CCCCCC1C(=O)CCC1CC(=O)OCC=C(C)C (stereo not drawn) [Prenyl Dihydrojasmonate],Increased Mortality over Control Mortality at 24 hours,[1]; [13],34%
same,Repellency at 24 hours,[1]; [13],79%
"CCCCCC1C(=O)CCC1CC(=O)OCCC (stereo not drawn) [Propyl Dihydrojasmonate - High epi, Propyl Dihydrojasmonate]",Repellency averaged over 5 hours,[12]; [14],49%
"CCCCCC1C(=O)CCC1CC(=O)OCCC (stereo not drawn) [Propyl Dihydrojasmonate - Low epi, Propyl Dihydrojasmonate]",Repellency averaged over 5 hours,[12]; [14],74%
